Assay [1] concerns the target T1, Trypsin II (Bos taurus, UniProt Q29463).
T1 sequence (Q29463 whole entry): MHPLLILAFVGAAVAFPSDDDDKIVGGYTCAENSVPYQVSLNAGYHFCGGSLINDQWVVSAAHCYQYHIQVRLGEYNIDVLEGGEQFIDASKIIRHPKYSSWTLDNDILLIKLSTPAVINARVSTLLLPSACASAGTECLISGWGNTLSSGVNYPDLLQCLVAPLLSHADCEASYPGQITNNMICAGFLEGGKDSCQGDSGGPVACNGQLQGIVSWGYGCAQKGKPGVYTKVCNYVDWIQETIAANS
The assay is described as follows: Binding affinity on bovine pancreatic trypsin enzyme.

Assay [2] concerns the target Prothrombin (Homo sapiens, UniProt P00734). The assay is described as follows: Binding affinity on Thrombin.

Each structure is given as a SMILES string. Bounds are passed on as bounds.

As usually defined, the Ki is the equilibrium dissociation constant of an inhibitor or competing ligand from its target. Read a high Ki as a looser hold on the target. Regarding `O=C1[C@@H](NS(=O)(=O)c2cc3ncccc3s2)CCN1Cc1cc2cc[nH]cc-2n1`, the Ki in assay [1] is greater than 2900 nM; in assay [2], greater than 4000 nM.
Consider `Nc1nccc2ccc(CN3CC[C@H](NS(=O)(=O)c4cc5ncccc5s4)C3=O)cc12`, for which the inhibition constant (Ki) in assay [1] was greater than 2900 nM.

For the origin of these results see ChEMBL document CHEMBL1133625, “Crystal structures of human factor Xa complexed with potent inhibitors” (J Med Chem, 2000).
